As usually defined, the TGI is the concentration giving total growth inhibition. Lower therefore signals greater sensitivity of the cells. Usually GI50 stands for the concentration giving 50% growth inhibition.

Holding throughout (assay): DTP human tumour cell line panel, 48 h
Test [1] relates to U251 CNS.
Test [2] concerns SR leukemia.
Test [3] concerns A549 NSCLC.
For test [4], the system named is HL-60(TB) leukemia.
Test [5] relates to KM12 colon.
Test [6] concerns UACC-257 melanoma.
Test [7] relates to TK-10 renal.
Test [8] has as its system UACC-62 melanoma.
Test [9] concerns OVCAR-8 ovarian.
The subject of test [10] is MOLT-4 leukemia.

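Following 48 hours of exposure in 96-well plates, responses at five concentrations were used to interpolate endpoints linearly. GI50: concentration for 50% inhibition of growth. At the TGI there is no net growth.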

For `CCOC(=O)NC(=O)c1cn(CCN2CCN(C(=O)NCCCCCCNC(=O)N3CCN(CCn4cc(C(=O)NC(=O)OCC)c(=O)[nH]c4=O)CC3)CC2)c(=O)[nH]c1=O`, the TGI in test [1], in test [2], in test [3], in test [4], in [5] and in [6] was above 100 µM throughout. Also, the TGI in [7], in test [8] and in [9] was above 100 µM in each case.

`CCOC(=O)Oc1c(OC)cc(C(=O)c2ccc(OC)c(O)c2OC)cc1OC`: the GI50 in test [1] is 0.947 µM; in [2] it was 0.381 µM; in [3] it was 3.96 µM; in test [5], 0.52 µM; in [6] it was above 100 µM; in [7] it was above 100 µM. The GI50 in test [8] is 3.82 µM; in [9], 3.36 µM; in test [10] it was 0.492 µM. The TGI in test [1], in [2], in test [3], in test [5], in test [6] and in test [7] was above 100 µM in each case. Moreover, the TGI in test [8], in test [9] and in test [10] was above 100 µM in each case.

Turning to `COC(=O)c1sc(C(=O)OC)c2c1CS(=O)C2`, the TGI in test [1], in test [3], in test [4], in [5], in test [6] and in test [7] was above 100 µM each time. Besides, the TGI in [8], in [9] and in test [10] was above 100 µM in each case.

Regarding `COc1cc(/C=C/C(=O)/C=C/c2cc(OC)c3c(c2)OCO3)cc2c1OCO2`, the GI50 in test [1] is 2.19 µM; in [3] it was 3.05 µM; in test [4], 63.4 µM; in test [5] it was 1.98 µM; in test [6] it was 3.52 µM; in test [7] it was 30.3 µM. Besides, the GI50 in [8] is 16.3 µM; in test [9] it was 2.83 µM; in [10] it was 9 µM. Further, the concentration for total growth inhibition (TGI) in [1] is 6.45 µM; in test [3], 15.1 µM; in test [4], above 100 µM; in test [5], 4.07 µM; in test [6], 41.9 µM; in test [7], above 100 µM. The TGI in [8] was above 100 µM; in test [9] it was 12.9 µM; in [10] it was above 100 µM.

For the compound `CCSCCCSCCSCC`, the TGI in [1], in test [3], in test [4], in test [5], in test [6] and in test [7] was above 100 µM in each case. In addition, the TGI was above 100 µM in test [8], above 100 µM in [9] and 84.5 µM in test [10].

On to `CCCN1C(=O)NC(=O)C(CC)(N2C(=O)c3c(F)c(F)c(F)c(F)c3C2=O)C1=O` (stereo not given), for which the GI50 is 1.41 µM in test [1]; 2.84 µM in test [3]; 1.97 µM in test [4]; 1.42 µM in test [5]; 2.99 µM in [6]; 2.29 µM in test [7]. In addition, the GI50 in [8] was 1.99 µM; in test [9], 2.54 µM; in test [10], 2.71 µM. Further, the TGI in [1] was found to be 3.76 µM; in test [3], 8.45 µM; in test [4], 4.33 µM; in test [5] it was 2.84 µM; in test [6], 8.63 µM; in test [7] it was 6 µM. The TGI in test [8] was found to be 5.94 µM; in [9], 7.81 µM; in [10] it was 8.65 µM.

With `N#CC(N)=Nc1ccccc1`, the TGI in test [1], in test [2], in test [3], in test [4], in [5] and in test [7] was above 100 µM in each case. The TGI in test [8], in test [9] and in test [10] was above 100 µM throughout.

For `Cn1c(=O)nc2n(-c3ccc(O)cc3)c3ccccc3nc-2c1=O`, the TGI in test [1], in test [3], in test [4], in test [5], in test [6] and in test [7] was above 100 µM throughout. Moreover, the TGI in test [8] was 52.5 µM; in test [9], above 100 µM; in [10], above 100 µM.

For `O=C1CC(CC(=O)C2CCCCC2=O)C(=O)N1` (stereo not given), the TGI in test [1], in [2], in test [3], in [4], in [5] and in test [6] was above 100 µM throughout. Also, the TGI in test [7], in test [8] and in test [9] was above 100 µM each time.

As to `N#CC(C#N)=C/C=C(\Cl)c1ccc(Cl)cc1`, the GI50 was 6.9 µM in test [1]; 3.31 µM in test [2]; 17.4 µM in [3]; 15 µM in test [5]; 14.8 µM in test [6]; 4.66 µM in [7]. For the same compound, the GI50 in test [8] was 6.13 µM; in [9] it was 10.1 µM; in test [10], 0.696 µM. The TGI was above 43.7 µM in [1]; 37.3 µM in [2]; 39.3 µM in test [3]; 44.1 µM in [5]; 30.2 µM in [6]; 19.2 µM in [7]. Besides, the TGI was 22.8 µM in test [8], 31.4 µM in test [9] and above 100 µM in test [10].

Take `CN1N=CSC12C(=O)N(c1ccccc1)C(=O)N2c1ccccc1` (stereo not given): the TGI in test [1], in [3], in [4], in [5], in test [6] and in [7] was above 100 µM in each case. For the same compound, the TGI in test [8], in [9] and in test [10] was above 100 µM each time.

The values above are taken from PubChem BioAssay (NCI).
